The source of these data is the supplement of paper PMC10307832.

What all share (experiment): relative viability (nuclei count vs DMSO), 5 days (fraction); higher = more cells survive
Compound in the test “AZD8055 + Foretinib”: COc1ccc(-c2ccc3c(N4CCOC[C@@H]4C)nc(N4CCOC[C@@H]4C)nc3n2)cc1CO [AZD8055] + COc1cc2c(Oc3ccc(NC(=O)C4(C(=O)Nc5ccc(F)cc5)CC4)cc3F)ccnc2cc1OCCCN1CCOCC1 [Foretinib] (partner 0.25 µM)
In outline:
(§1)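 Nuclei were stained with Hoechst during a one-step fixation (final 0.05% Triton X-100, 1% formaldehyde, 1 ug/ml Hoechst) carried out 5 days after dosing, then counted on 4× images. The cells, lung cancer lines in 1536-well plates, had been dosed by pin tool the day after seeding with one drug alone or a fixed anchor-drug dose plus five library-drug doses (not always all listed) in √10 steps. Relative viability is the nuclei count in treated wells divided by that in vehicle wells, and each value is the median of duplicate plates.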

Compound in the test “AZD8055 + Alpelisib”: COc1ccc(-c2ccc3c(N4CCOC[C@@H]4C)nc(N4CCOC[C@@H]4C)nc3n2)cc1CO [AZD8055] + Cc1nc(NC(=O)N2CCC[C@H]2C(N)=O)sc1-c1ccnc(C(C)(C)C(F)(F)F)c1 [Alpelisib] (partner 2 µM)
In outline:
as §1

Compound in the test “AZD8055 + Pemetrexed”: COc1ccc(-c2ccc3c(N4CCOC[C@@H]4C)nc(N4CCOC[C@@H]4C)nc3n2)cc1CO [AZD8055] + Nc1nc2[nH]cc(CCc3ccc(C(=O)N[C@@H](CCC(=O)O)C(=O)O)cc3)c2c(=O)[nH]1 [Pemetrexed] (partner 0.2 µM)
In outline:
as §1

Compound in the test “AZD8055 + Olaparib”: COc1ccc(-c2ccc3c(N4CCOC[C@@H]4C)nc(N4CCOC[C@@H]4C)nc3n2)cc1CO [AZD8055] + O=C(c1cc(Cc2n[nH]c(=O)c3ccccc23)ccc1F)N1CCN(C(=O)C2CC2)CC1 [Olaparib] (partner 8 µM)
In outline: as §1

For NCI-H1993, the relative viability with AZD8055 + Foretinib (first compound 0.01 µM) is 0.696; with AZD8055 + Foretinib (first compound 0.03162 µM) it was 0.584; with AZD8055 + Foretinib (first compound 0.1 µM) it was 0.51; in the test with AZD8055 + Foretinib (first compound 0.3162 µM) it was 0.503; with AZD8055 + Foretinib (first compound 1 µM), 0.577; with AZD8055 + Alpelisib (first compound 0.01 µM), 0.679. In addition, the relative viability with AZD8055 + Alpelisib (first compound 0.03162 µM) worked out at 0.629; with AZD8055 + Alpelisib (first compound 0.1 µM), 0.632; in the test with AZD8055 + Alpelisib (first compound 0.3162 µM), 0.623; with AZD8055 + Alpelisib (first compound 1 µM), 0.638; with AZD8055 + Pemetrexed (first compound 0.01 µM), 0.519; in the test with AZD8055 + Pemetrexed (first compound 0.03162 µM) it was 0.542. In addition, the relative viability is 0.459 with AZD8055 + Pemetrexed (first compound 0.1 µM); 0.434 with AZD8055 + Pemetrexed (first compound 0.3162 µM); 0.473 with AZD8055 + Pemetrexed (first compound 1 µM); 1.02 with AZD8055 + Olaparib (first compound 0.01 µM); 0.793 with AZD8055 + Olaparib (first compound 0.03162 µM); 0.602 with AZD8055 + Olaparib (first compound 0.1 µM). Besides, the values for the relative viability with AZD8055 + Olaparib (first compound 0.3162 µM) and with AZD8055 + Olaparib (first compound 1 µM) were 0.409 and 0.434, respectively.

With NCI-H838, the relative viability with AZD8055 + Foretinib (first compound 0.01 µM) was 1; with AZD8055 + Foretinib (first compound 0.03162 µM), 0.913; with AZD8055 + Foretinib (first compound 0.1 µM), 0.597; in the test with AZD8055 + Foretinib (first compound 0.3162 µM), 0.398; with AZD8055 + Foretinib (first compound 1 µM), 0.347; with AZD8055 + Alpelisib (first compound 0.01 µM) it was 0.981. The relative viability in the test with AZD8055 + Alpelisib (first compound 0.03162 µM) is 0.781; in the test with AZD8055 + Alpelisib (first compound 0.1 µM), 0.412; in the test with AZD8055 + Alpelisib (first compound 0.3162 µM) it was 0.276; with AZD8055 + Alpelisib (first compound 1 µM), 0.288; with AZD8055 + Pemetrexed (first compound 0.01 µM), 0.228; with AZD8055 + Pemetrexed (first compound 0.03162 µM), 0.236. The relative viability with AZD8055 + Pemetrexed (first compound 0.1 µM) is 0.231; with AZD8055 + Pemetrexed (first compound 0.3162 µM) it was 0.18; with AZD8055 + Pemetrexed (first compound 1 µM), 0.201; with AZD8055 + Olaparib (first compound 0.01 µM), 0.687; in the test with AZD8055 + Olaparib (first compound 0.03162 µM), 0.597; in the test with AZD8055 + Olaparib (first compound 0.1 µM), 0.351. Further, the relative viability turned out to be 0.259 with AZD8055 + Olaparib (first compound 0.3162 µM) and 0.29 in the test with AZD8055 + Olaparib (first compound 1 µM).

Regarding NCI-H1437, the relative viability in the test with AZD8055 + Foretinib (first compound 0.01 µM) came out at 1.38; with AZD8055 + Foretinib (first compound 0.03162 µM), 1.37; in the test with AZD8055 + Foretinib (first compound 0.1 µM), 1.24; with AZD8055 + Foretinib (first compound 0.3162 µM) it was 0.869; with AZD8055 + Foretinib (first compound 1 µM) it was 0.482; with AZD8055 + Alpelisib (first compound 0.01 µM), 0.802. Also, the relative viability with AZD8055 + Alpelisib (first compound 0.03162 µM) came to 0.808; in the test with AZD8055 + Alpelisib (first compound 0.1 µM) it was 0.697; in the test with AZD8055 + Alpelisib (first compound 0.3162 µM), 0.178; with AZD8055 + Alpelisib (first compound 1 µM), 0.159; with AZD8055 + Pemetrexed (first compound 0.01 µM), 0.324; with AZD8055 + Pemetrexed (first compound 0.03162 µM) it was 0.308. The relative viability with AZD8055 + Pemetrexed (first compound 0.1 µM) was determined as 0.276; with AZD8055 + Pemetrexed (first compound 0.3162 µM), 0.23; with AZD8055 + Pemetrexed (first compound 1 µM), 0.224; with AZD8055 + Olaparib (first compound 0.01 µM), 0.696; with AZD8055 + Olaparib (first compound 0.03162 µM), 0.658; with AZD8055 + Olaparib (first compound 0.1 µM), 0.601. Moreover, the relative viability with AZD8055 + Olaparib (first compound 0.3162 µM) came to 0.457; with AZD8055 + Olaparib (first compound 1 µM), 0.311.

NCI-H2170: the relative viability amounted to 1.07 with AZD8055 + Foretinib (first compound 0.01 µM); 1.04 with AZD8055 + Foretinib (first compound 0.03162 µM); 0.868 with AZD8055 + Foretinib (first compound 0.1 µM); 0.451 in the test with AZD8055 + Foretinib (first compound 0.3162 µM); 0.397 with AZD8055 + Foretinib (first compound 1 µM); 0.691 in the test with AZD8055 + Alpelisib (first compound 0.01 µM). Further, the relative viability is 0.623 in the test with AZD8055 + Alpelisib (first compound 0.03162 µM); 0.386 in the test with AZD8055 + Alpelisib (first compound 0.1 µM); 0.288 with AZD8055 + Alpelisib (first compound 0.3162 µM); 0.252 with AZD8055 + Alpelisib (first compound 1 µM); 0.287 in the test with AZD8055 + Pemetrexed (first compound 0.01 µM); 0.288 with AZD8055 + Pemetrexed (first compound 0.03162 µM). For the same cell line, the relative viability with AZD8055 + Pemetrexed (first compound 0.1 µM) is 0.255; with AZD8055 + Pemetrexed (first compound 0.3162 µM) it was 0.24; with AZD8055 + Pemetrexed (first compound 1 µM), 0.248; with AZD8055 + Olaparib (first compound 0.01 µM), 0.67; with AZD8055 + Olaparib (first compound 0.03162 µM), 0.572; with AZD8055 + Olaparib (first compound 0.1 µM), 0.37. In addition, the relative viability in the test with AZD8055 + Olaparib (first compound 0.3162 µM) stood at 0.198; with AZD8055 + Olaparib (first compound 1 µM), 0.183.

For the cell line LCLC-103H, the relative viability came to 0.72 with AZD8055 + Foretinib (first compound 0.01 µM); 0.616 with AZD8055 + Foretinib (first compound 0.03162 µM); 0.583 in the test with AZD8055 + Foretinib (first compound 0.1 µM); 0.359 in the test with AZD8055 + Foretinib (first compound 0.3162 µM); 0.281 in the test with AZD8055 + Foretinib (first compound 1 µM); 0.956 with AZD8055 + Alpelisib (first compound 0.01 µM). The relative viability with AZD8055 + Alpelisib (first compound 0.03162 µM) was 0.88; with AZD8055 + Alpelisib (first compound 0.1 µM), 0.774; with AZD8055 + Alpelisib (first compound 0.3162 µM) it was 0.538; with AZD8055 + Alpelisib (first compound 1 µM) it was 0.422; with AZD8055 + Pemetrexed (first compound 0.01 µM), 0.499; with AZD8055 + Pemetrexed (first compound 0.03162 µM), 0.438. Also, the relative viability with AZD8055 + Pemetrexed (first compound 0.1 µM) is 0.54; in the test with AZD8055 + Pemetrexed (first compound 0.3162 µM) it was 0.49; in the test with AZD8055 + Pemetrexed (first compound 1 µM), 0.392; with AZD8055 + Olaparib (first compound 0.01 µM), 0.824; with AZD8055 + Olaparib (first compound 0.03162 µM), 0.634; in the test with AZD8055 + Olaparib (first compound 0.1 µM), 0.631. The relative viability in the test with AZD8055 + Olaparib (first compound 0.3162 µM) came out at 0.47; with AZD8055 + Olaparib (first compound 1 µM) it was 0.396.

On to NCI-H441, for which the relative viability amounted to 0.925 with AZD8055 + Foretinib (first compound 0.01 µM); 0.94 in the test with AZD8055 + Foretinib (first compound 0.03162 µM); 0.68 with AZD8055 + Foretinib (first compound 0.1 µM); 0.349 in the test with AZD8055 + Foretinib (first compound 0.3162 µM); 0.37 with AZD8055 + Foretinib (first compound 1 µM); 0.678 with AZD8055 + Alpelisib (first compound 0.01 µM). Moreover, the relative viability in the test with AZD8055 + Alpelisib (first compound 0.03162 µM) was determined as 0.42; in the test with AZD8055 + Alpelisib (first compound 0.1 µM), 0.444; with AZD8055 + Alpelisib (first compound 0.3162 µM) it was 0.331; with AZD8055 + Alpelisib (first compound 1 µM) it was 0.315; in the test with AZD8055 + Pemetrexed (first compound 0.01 µM), 0.273; with AZD8055 + Pemetrexed (first compound 0.03162 µM), 0.247. Further, the relative viability came out at 0.232 with AZD8055 + Pemetrexed (first compound 0.1 µM); 0.234 with AZD8055 + Pemetrexed (first compound 0.3162 µM); 0.205 with AZD8055 + Pemetrexed (first compound 1 µM); 0.691 with AZD8055 + Olaparib (first compound 0.01 µM); 0.528 with AZD8055 + Olaparib (first compound 0.03162 µM); 0.359 with AZD8055 + Olaparib (first compound 0.1 µM). Further, the relative viability worked out at 0.32 in the test with AZD8055 + Olaparib (first compound 0.3162 µM) and 0.249 with AZD8055 + Olaparib (first compound 1 µM).
